Laboratory results as given in paper PMC4364341, “NBD delivery improves the disease phenotype of the golden retriever model of Duchenne muscular dystrophy” (Skeletal Muscle, 2014).

System: GRMD dogs
Assay: MRI of proximal pelvic limb muscles, GRMD dogs
Type: in vivo, dog
Design: MRI T2 mapping value: unit not given here
Details: 6 months, NBD 10 mg/kg IV 3x weekly for 4 months, n = 6
Source text: Studies were done on a Siemens 3 T Allegra Head-Only MRI scanner with a circular polarization (CP) head coil or Siemens 3 T Tim Trio Whole-Body MRI scanner with a 32-channel body coil at the UNC-CH Biomedical Research Imaging Center (BRIC). Dogs were anesthetized (above), placed on an MRI gantry in the sternal (prone) position with the pelvic limbs extended, and positioned in the coil centered at the midpoint of the femur. The proximal pelvic limbs from the coxofemoral joint to the stifle were imaged bilaterally. Scans were completed using a published protocol. T2-weighted image sequences without (T2w) and with fat saturation (T2fs) were acquired using a variable-flip-angle turbo spin echo (TSE) sequence. The time between the excitation pulse and the center of k-space was 400 ms. Importantly, the contrast was not determined only by the TE (400 ms), but also by the flip angle evolution scheme. Although a traditional TSE sequence would have very little signal at 400 ms, the variable flip angle sequence is similar in principle to hyper-echo. The hyper-echo reduces the specific absorption rate (SAR), while the variable flip angle sequence allows long TE times. A multi-spin-echo T2 (MSE-T2), using a 10-echo Carr-Purcell-Meiboom-Gill sequence, was acquired to calculate the T2 value map. Analysis of the images was completed in three modules: muscle segmentation, pre-processing, and biomarker analysis. As a prerequisite, we first segmented the major proximal pelvic limb muscles in the MRI images. All proximal pelvic limb muscles were segmented but only five slices at the midfemur were analyzed and averaged.
For the sake of this study, the biomarker analysis was limited to muscle volumes, T2 mapping values, and several texture analysis features, including a first-order intensity histogram texture feature (entropy) and two high order run length matrix features (short run emphasis (SRE) and run length non-uniformity (RLN)). These texture analysis features were assessed as potential markers of patchy lesions such as necrosis. Based on the mathematical model, we refer to short run emphasis as the Small Lesion Index (SLI) and non-uniformity as the Heterogeneity Index (HI). Both SLI and HI use the run-length matrix method. Compared to histogram-based biomarkers that use intensity data only, the run-length matrix method also takes into account the spatial distribution and intensity of the voxels. A gray-level ‘run’ is defined as a set of consecutive voxels of similar intensity level in a given direction within a predefined similarity range. This is run in a three-dimensional matrix and is intended to detect lumps of hyper-intensity in MRI. To determine overall muscle scores for T2 and the texture features in each group, the proportional muscle volume was considered, so as to calculate a weighted average.

For “TALDWSWLQTE [NBD, NBD peptide (…) fused to an Antennapedia protein transduction domain]”, the “MRI HI (Heterogeneity Index, run length non-uniformity)” value (Adductor) was 116.2 ± 22.37, the “MRI SLI (Small Lesion Index, short run emphasis)” value (Adductor) was 0.72 ± 0.02 and the “MRI T2 mapping value” (Adductor) was 39.52 ± 4.76. For the same sequence, the “MRI HI (Heterogeneity Index, run length non-uniformity)” value (All muscles (weighted average)) was 86.01 ± 18.28, the “MRI SLI (Small Lesion Index, short run emphasis)” value (All muscles (weighted average)) was 0.70 ± 0.04^^ and the “MRI T2 mapping value” (All muscles (weighted average)) was 47.34 ± 3.10^^. For the same sequence, the “MRI HI (Heterogeneity Index, run length non-uniformity)” value (Biceps Femoris) was 87.50 ± 48.42, the “MRI SLI (Small Lesion Index, short run emphasis)” value (Biceps Femoris) was 0.68 ± 0.06^^ and the “MRI T2 mapping value” (Biceps Femoris) was 40.20 ± 4.91^^. For the same sequence, the “MRI HI (Heterogeneity Index, run length non-uniformity)” value (Caudal Sartorius) was 35.21 ± 14.92, the “MRI SLI (Small Lesion Index, short run emphasis)” value (Caudal Sartorius) was 0.83 ± 0.05 and the “MRI T2 mapping value” (Caudal Sartorius) was 53.87 ± 9.88. For the same sequence, the “MRI SLI (Small Lesion Index, short run emphasis)” value (Cranial Sartorius) was 0.79 ± 0.05, the “MRI T2 mapping value” (Cranial Sartorius) was 49.40 ± 9.01 and the “MRI HI (Heterogeneity Index, run length non-uniformity)” value (Gracilis) was 58.90 ± 30.66. For the same sequence, the “MRI SLI (Small Lesion Index, short run emphasis)” value (Gracilis) was 0.70 ± 0.06^^, the “MRI T2 mapping value” (Gracilis) was 45.91 ± 3.50 and the “MRI HI (Heterogeneity Index, run length non-uniformity)” value (Rectus Femoris) was 55.42 ± 21.95. For the same sequence, the “MRI SLI (Small Lesion Index, short run emphasis)” value (Rectus Femoris) was 0.68 ± 0.07^^, the “MRI T2 mapping value” (Rectus Femoris) was 37.23 ± 4.72 and the “MRI HI (Heterogeneity Index, run length non-uniformity)” value (Semimembranosus) was 78.15 ± 33.31. For the same sequence, the “MRI SLI (Small Lesion Index, short run emphasis)” value (Semimembranosus) was 0.68 ± 0.06, the “MRI T2 mapping value” (Semimembranosus) was 39.42 ± 4.86 and the “MRI HI (Heterogeneity Index, run length non-uniformity)” value (Semitendinosus) was 81.43 ± 35.00. The “MRI SLI (Small Lesion Index, short run emphasis)” value (Semitendinosus) was 0.67 ± 0.08^^, the “MRI T2 mapping value” (Semitendinosus) was 40.41 ± 4.97^^ and the “MRI HI (Heterogeneity Index, run length non-uniformity)” value (Vastus Intermedius) was 59.10 ± 27.19. For the same sequence, the “MRI SLI (Small Lesion Index, short run emphasis)” value (Vastus Intermedius) was 0.68 ± 0.09, the “MRI T2 mapping value” (Vastus Intermedius) was 41.91 ± 5.91^^ and the “MRI HI (Heterogeneity Index, run length non-uniformity)” value (Vastus Lateralis) was 52.92 ± 27.20. The “MRI SLI (Small Lesion Index, short run emphasis)” value (Vastus Lateralis) was 0.68 ± 0.04^^, the “MRI T2 mapping value” (Vastus Lateralis) was 40.67 ± 5.84^^ and the “MRI HI (Heterogeneity Index, run length non-uniformity)” value (Vastus Medialis) was 52.55 ± 22.29. For the same sequence, the “MRI SLI (Small Lesion Index, short run emphasis)” value (Vastus Medialis) was 0.77 ± 0.09 and the “MRI T2 mapping value” (Vastus Medialis) was 42.74 ± 5.65.
